The source of these data is patent publication US7312231B2, “Quinuclidine carbamate derivatives and their use as M3 antagonists” (priority 2000, dated 2007).

The target of data set [1] is T1, human muscarinic M3 receptors (Homo sapiens, UniProt P20309).
T1 construct: expressed in transfected cells; host or cells: Chinese hamster ovary-K1 (CHO) cells, membrane preparations
Nature of the data set: biochemical. Format: binding. To be noted: for IC50: [3H]-NMS displacement, membranes of CHO-K1 cells expressing human M3, 25° C., 60 min, read-out: BINDING TO RECPTOR M3 (IC50 nM). The method, then:
The binding of [^3H]-NMS to human muscarinic receptors was performed according to Waelbroek et al (1990), Mol. Pharmacol., 38:267–273. Assays were carried out at 25° C. Membrane preparations from stably transfected Chinese hamster ovary-K1 cells (CHO) expressing the genes for the human muscarinic M3 receptors were used.
For determination of IC50, membrane preparations were suspended in DPBS to a final concentration of 89 μg/ml for the M3 subtype. The membrane suspension wasincubated with the tritiated compound for 60 min. After incubation the membrane fraction was separated by filtration and the bound radioactivity determined. […] At least six concentrations were assayed in duplicate to generate individual displacement curves.

pIC50: −log10 of the molar value. Where two headings read alike, the source gives them in different places.

T1 sequence (P20309 whole entry): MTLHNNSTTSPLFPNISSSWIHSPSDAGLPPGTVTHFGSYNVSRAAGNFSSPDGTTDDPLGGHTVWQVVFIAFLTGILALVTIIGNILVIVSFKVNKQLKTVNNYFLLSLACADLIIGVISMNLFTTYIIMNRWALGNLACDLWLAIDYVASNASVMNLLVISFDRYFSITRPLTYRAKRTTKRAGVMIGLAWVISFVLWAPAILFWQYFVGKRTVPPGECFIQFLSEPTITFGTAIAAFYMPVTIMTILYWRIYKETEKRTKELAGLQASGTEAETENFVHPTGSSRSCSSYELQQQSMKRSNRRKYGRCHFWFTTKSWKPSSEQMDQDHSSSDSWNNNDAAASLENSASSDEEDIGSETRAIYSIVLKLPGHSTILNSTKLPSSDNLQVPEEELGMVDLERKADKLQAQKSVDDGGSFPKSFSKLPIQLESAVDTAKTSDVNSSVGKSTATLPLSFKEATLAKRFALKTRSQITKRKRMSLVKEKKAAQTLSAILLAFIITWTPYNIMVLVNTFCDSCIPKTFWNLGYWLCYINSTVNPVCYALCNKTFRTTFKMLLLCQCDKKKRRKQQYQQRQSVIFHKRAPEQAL

Take `O=C(O[C@H]1C[N+]2(CCc3ccccc3)CCC1CC2)N(Cc1ccccc1)c1ccccc1.[Br-]`: the melting point came out at 81 °C.
Take `O=C(O[C@@H]1C[N+]2(CCCc3ccccc3)CCC1CC2)N(Cc1ccccc1)c1ccccc1.[Br-]`: the melting point came out at 64 °C.
`C=CC[N+]12CCC(CC1)[C@@H](OC(=O)N(CCCC)c1ccccc1)C2.[Br-]` gave a melting point of 141 °C.
The same measure, in the same setting: the result for `CCCCN(C(=O)O[C@H]1C[N+]2(CCc3ccccc3)CCC1CC2)c1ccccc1.[Br-]` reads 139 °C.
In turn, `CCCCN(C(=O)O[C@H]1C[N+]2(CCCc3ccccc3)CCC1CC2)c1ccccc1.[Br-]` gave a melting point of 120 °C.
In the case of “1-Allyl-3-(R)(phenylthiophen-2-ylmethylcarbamoyloxy)-1-azoniabicyclo [2.2.2]octane; bromide [Example 92]”, in data set [1], the IC50 was 11.5 nM.
With “3-(R)(Phenylthiophen-3-ylmethylcarbamoyloxy)-1-(2-phenoxyethyl)-1-azonia bicyclo[2.2.2]octane; bromide [Example 136]”, the IC50 in data set [1] came to 9 nM.
For the compound `O=C(O[C@H]1CN2CCC1CC2)N(Cc1ccccc1)c1ccccc1` [Example 1, Benzylphenylcarbamic acid 1-azabicyclo[2.2.2]oct-3-(R)yl ester], in data set [1], the IC50 is 5 nM.
`O=C(O[C@H]1C[N+]2(CC=Cc3ccccc3)CCC1CC2)N(Cc1ccccc1)c1ccccc1.[Br-]` [Example 5, 3-(R)(Benzylphenylcarbamoyloxy)-1-(3-phenylallyl)-1-azoniabicyclo[2.2.2]octane; bromide]: the melting point was 129 °C. Besides, in data set [1], the IC50 was 11.1 nM.
As for `C=CC[N+]12CCC(CC1)[C@@H](OC(=O)N(Cc1ccccc1)c1ccccc1)C2.[Br-]` [Example 6, 1-Allyl-3-(R)(benzylphenylcarbamoyloxy)-1-azoniabicyclo[2.2.2]octane; bromide], the melting point was 70 °C. The IC50 in data set [1] amounted to 18 nM.
For `O=C(O[C@H]1C[N+]2(CCCc3ccccc3)CCC1CC2)N(Cc1ccccc1)c1ccccc1.[Br-]` [Example 31, 3-(R)(Benzylphenylcarbamoyloxy)-1-(3-phenylpropyl)-1-azoniabicyclo[2.2.2]octane; bromide], the melting point amounted to 101 °C. Also, the IC50 in data set [1] came to 8 nM.
With `O=C(O[C@H]1C[N+]2(CCOc3ccccc3)CCC1CC2)N(Cc1ccccc1)c1ccccc1` [Example 32, 3-(R)(Benzylphenylcarbamoyloxy)-1-(2-phenoxyethyl)-1-azoniabicyclo[2.2.21 octane; bromide], the IC50 in data set [1] was 8 nM.
For `CCCCN(C(=O)O[C@H]1C[N+]2(CC=Cc3ccccc3)CCC1CC2)c1ccccc1.[Br-]` [Example 58, 3-(R)(Butylphenylcarbamoyloxy)-1-(3-phenylallyl)-1-azoniabicyclo[2.2.2]octane; bromide], the melting point amounted to 144 °C. Besides, the concentration for half-maximal inhibition (IC50) in data set [1] is 8 nM.
Turning to `CCCCN(C(=O)O[C@H]1C[N+]2(CCOc3ccccc3)CCC1CC2)c1ccccc1` [Example 79, 3-(R)(Butylphenylcarbamoyloxy)-1-(2-phenoxyethyl)-1-azoniabicyclo[2.2.2]octane; bromide], the IC50 in data set [1] came out at 14 nM.
As to `O=C(O[C@H]1CN2CCC1CC2)N(Cc1cccs1)c1ccccc1` [Example 82, Phenylthiophen-2-ylmethylcarbamic acid 1-azabicyclo[2.2.2]oct-3-(R)yl ester], in data set [1], the IC50 was found to be 4.5 nM.
Consider `O=C(O[C@H]1C[N+]2(CCCc3cccs3)CCC1CC2)N(Cc1cccs1)c1ccccc1` [Example 90, 3-(R)(phenylthiophen-2-ylmethylcarbamoyloxy)-1-(3-thiophen-2-ylpropyl)-1-azoniabicyclo[2.2.2]octane; bromide], for which the IC50 in data set [1] was determined as 9.2 nM.
Take `O=C(O[C@H]1C[N+]2(CCOc3ccccc3)CCC1CC2)N(Cc1cccs1)c1ccccc1` [Example 91, 1-(2-Phenoxyethyl)-3-(R)(phenylthiophen-2-ylmethylcarbamoyloxy)-1-azonia bicyclo[2.2.2]octane; bromide]: the 50% inhibitory concentration (IC50) in data set [1] worked out at 6.8 nM.
In data set [1], `CCCCCN(C(=O)O[C@H]1CN2CCC1CC2)c1ccccc1` [Example 104, Pentylphenylcarbamic acid 1-azabicyclo[2.2.2]oct-3-(R)yl ester] had a pIC50 of 7.72.
In the case of `O=C(O[C@H]1CN2CCC1CC2)N(Cc1ccsc1)c1ccccc1` [Example 126, Phenylthiophen-3-ylmethylcarbamic acid 1-azabicyclo[2.2.2]oct-3-(R)yl ester], the IC50 in data set [1] came out at 8.6 nM.
For `O=C(O[C@H]1C[N+]2(CCCc3ccccc3)CCC1CC2)N(Cc1cccs1)Cc1cccs1` [Example 142, 3-(R)(bis-thiophen-2-ylmethylcarbamoyloxy)-1-(3-phenylpropyl)-1-azoniabicyclo [2.2.2]octane; bromide], the half-maximal inhibitory concentration (IC50) in data set [1] turned out to be 17.8 nM.
With `O=C(O[C@H]1C[N+]2(CCCc3cccs3)CCC1CC2)N(Cc1cccs1)Cc1cccs1` [Example 146, 3-(R)(bis-thiophen-2-ylmethylcarbamoyloxy)-1-(3-thiophen-2-ylpropyl)-1-azonia bicyclo[2.2.2]octane; bromide], the IC50 in data set [1] worked out at 14.4 nM.
The same measure, in the same setting: the result for `O=C(O[C@H]1CN2CCC1CC2)N(Cc1ccco1)c1ccccc1` [Example 153, Furan-2-ylmethylphenylcarbamic acid 1-azabicyclo[2.2.2]oct-3-(R)yl ester] reads 6 nM.
Take `O=C(O[C@H]1CN2CCC1CC2)N(Cc1ccco1)Cc1ccco1` [Example 156, bis-Furan-2-ylmethylcarbamic acid 1-azabicyclo[2.2.2]oct-3-(R)yl ester]: the IC50 in data set [1] was 18 nM.

As a reminder, the melting point is the temperature, or range, at which the solid turns liquid. For orientation: IC50 means the concentration that gives 50% inhibition. What is called pIC50 is −log10 of the IC50, conventionally taken in molar units. High values mean a small IC50, low ones a large IC50.
